Source: patent US20140363818A1, “EGFR and PAR2 Regulation of Intestinal Permeability” (UNIVERSITY OF MARYLAND, BALTIMORE, priority 2009, published 2014)
Entries after “also recorded” stand apart in the source; their conditions may differ.

Experiments:
[1] = test system: C57BL/6 WT murine small intestine segments; assay: Ex vivo intestinal permeability (TEER) in the microsnapwell system; type: cell-based, mouse; conditions: for TEER change / intestinal permeability, dose-response experiment: C57BL/6 WT segments, zonulin 5-50 μg/well, trypsin-cleaved pre-HP2 50 μg/well
Protocol: The effect of zonulin/pre-HP2 on ex vivo intestinal permeability was monitored in the microsnapwell system as described (3). Briefly, segments of small intestine from C57BL/6 WT mice were mounted onto the microsnapwell system, and their luminal side was exposed for 30 min to medium alone or to the medium containing increasing concentrations of the purified recombinant zonulin. TEER was measured at time 0 and at 30-min time intervals for a period of 2 h using a planar electrode (Endohm SNAP electrode attached to an Evom-G WPI analyzer; World Precision Instruments) and expressed in Ω/cm^2 after normalization. […] In another set of experiments, zonulin was tested both in C57BL/6 WT and PAR2−/− mice. […]
Recombinant pre-HP2 (from now on defined as zonulin) was applied to WT C57BL/6 murine small intestine segments mounted in microsnapwells.

PAR2 = biological target: T1, PAR2 (Mus musculus, UniProt P55086); conditions: demonstrated in WT, but not PAR2−/− mice; cited from earlier work
T1 sequence (P55086 26-399): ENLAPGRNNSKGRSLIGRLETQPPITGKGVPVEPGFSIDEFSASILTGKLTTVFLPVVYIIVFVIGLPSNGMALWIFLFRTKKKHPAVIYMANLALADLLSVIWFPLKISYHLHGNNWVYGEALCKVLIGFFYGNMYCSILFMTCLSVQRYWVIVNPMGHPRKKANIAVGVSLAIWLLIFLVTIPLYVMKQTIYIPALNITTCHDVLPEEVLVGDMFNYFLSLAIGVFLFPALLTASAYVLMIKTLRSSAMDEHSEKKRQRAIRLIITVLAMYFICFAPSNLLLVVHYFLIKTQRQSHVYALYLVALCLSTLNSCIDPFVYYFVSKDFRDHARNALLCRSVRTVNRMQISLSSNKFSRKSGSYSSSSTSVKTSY

129/SvEv WT mice = assay: In vivo gastrointestinal permeability with sugar probes (lactulose/mannitol, sucrose); set-up: species or system mouse; conditions: for small intestinal permeability (lacman ratio) vs BSA-treated controls / gastroduodenal permeability (sucrose fractional excretion) vs BSA-treated controls: 170 mg/mouse [sic], gavage, challenge day vs 3 days before; for small intestinal permeability (lacman ratio) vs BSA-treated controls: FIG. 4A; for gastroduodenal permeability (sucrose fractional excretion) vs BSA-treated controls: FIG. 4B
Protocol: They were acclimatized to the experimental techniques for 3 wk, by fasting the animals for 3 h, gavaging the animals with a sugar probe, and placing them in metabolic cages twice each wk. On the day of protein challenge, the animals received either 170 micrograms of the purified single-chain zonulin in a 60 microliter solution or a similar amount of purified 2-chain cleaved HP2, together with the sugar gavage as described (4). […] Two days after the drug challenge day, mice were again placed in metabolic cages to measure their recovery from the treatment.
To establish whether zonulin might alter intestinal permeability in vivo, mice were gavaged with the single chain recombinant pre-HP2 protein (170 mg/mouse), and gastroduodenal and small intestinal permeability tested using specific sugar probes (sucrose and lactulose/mannitol, respectively) as described (14).

EGFR = biological target: T2, EGFR (Homo sapiens, UniProt P00533); assay: EGFR phosphorylation in serum-starved Caco-2 cells (immunoprecipitation / Western blot); type: cell-based; conditions: for EGFR phosphorylation compared with single chain zonulin: two-chain mature HP2 10 ml/ml as printed, Caco-2, FIG. 5D
T2 construct: serum-starved, high EGFR-expressing Caco-2 cells; endogenous in cells; host or cells: Caco-2
Protocol: PAR2 expression in Caco-2 cells was silenced using 2 different PAR2 siRNAs [HSS103471 and HSS103473 (50 nM each); Invitrogen].
The effect of zonulin on ex vivo and in vivo intestinal permeability was performed as described (8, 14) and reported above. To determine whether zonulin can activate EGFR, increasing concentrations of either zonulin or two-chain mature HP2 were added for increasing exposure times to serum-starved, high EGFR-expressing Caco-2 cells. The cells were lysed and processed for WB with anti-phospho EGFR (Y1068) Ab (Cell Signaling Technol. Inc.) as reported (40).
To determine whether zonulin can activate EGFR, increasing concentrations of baculovirus-derived, recombinant zonulin were added to Caco-2 intestinal epithelial cells. The cells were lysed, immunoprecipitated with anti-EGFR Ab, and processed for phosphotyrosine immunoblotting (PY-Plus).

**Q.** With COc1cc2ncnc(Nc3cccc(Cl)c3)c2cc1OC [AG1478, reference compound] as the molecule, how does the “effect on zonulin-induced drop in TEER” value ([1]; 5 μM AG1478 with zonulin 10 μg/well, C57BL/6 WT, 90 min, FIG. 5C) read?
**A.** abolished TEER reduction; also recorded: prevented

**Q.** Which “changes in TEER” value (PAR2) does the source give for FCIGRL [AT1002] here?
**A.** PAR2-dependent changes in TEER

**Q.** What does the source list for “zonulin: Recombinant human haptoglobin-2 precursor (pre-HP2), uncleaved single chain, expressed in a baculovirus system”?
**A.** small intestinal permeability (lacman ratio) vs BSA-treated controls (129/SvEv WT mice): increases; small intestinal permeability (lacman ratio) vs BSA-treated controls (129/SvEv WT mice; listed as Zonulin/preHP2): increased; gastroduodenal permeability (sucrose fractional excretion) vs BSA-treated controls (129/SvEv WT mice): increases; gastroduodenal permeability (sucrose fractional excretion) vs BSA-treated controls (129/SvEv WT mice; listed as Zonulin/preHP2): increased; time for small intestinal permeability to return to pre-challenge values (129/SvEv WT mice; after zonulin challenge, FIG. 4C): ≤ 48 h; time for gastroduodenal permeability to return to pre-challenge values (129/SvEv WT mice; after zonulin challenge, FIG. 4D): ≤ 48 h; TEER change / intestinal permeability, dose-response experiment ([1]; FIG. 3): increased intestinal permeability in C57BL/6 WT mice in a dose-and time-dependent manner; TEER change in wild-type intestinal segments ([1]; C57BL/6 WT, 10 μg/well, baseline vs 90 min, FIG. 5C, 6B): decreased TEER; also recorded: significant drop in TEER; TEER change in PAR2−/− intestinal segments ([1]; PAR2−/− mice, 10 mg zonulin as printed, time 0 vs 90 min, FIG. 6B): failed to reduce TEER; also recorded: did not increase intestinal permeability; concentration at which TEER decreased (increased permeability) ([1]; added to mucosal (luminal) aspect of WT C57BL/6 small intestine segments, FIG. 3): ≥ 40 µg/mL; concentration inducing significant drop in TEER ([1]; luminal side, C57BL/6 WT, starting at 60 min post-exposure, tested 5, 10, 25, 50 μg/well, FIG. 3): 10 μg/well; concentration at which tyrosine phosphorylation of EGFR increased (EGFR; Caco-2 cells, anti-EGFR IP, PY-Plus blot, FIG. 5A): ≥ 3 mg/mL; concentration at which the dose-dependent increase in EGFR phosphorylation reached a plateau (EGFR; serum-starved Caco-2 cells, FIG. 5A): 3 ml/ml; EGFR phosphorylation vs media (EGFR; zonulin 10 ml/well as printed, alone, serum-starved Caco-2, FIG. 5B): increase in EGFR phosphorylation

B1: two-chain HP2: Cleaved two-chain mature HP2 (α2 and β chains) obtained by trypsin digestion of single chain zonulin (protein)
chain 1: VDSGNDVTDIADDGCPKPPEIAHGYVEHSVRYQCKNYYKLRTEGDGVYTLNDKKQWINKAVGDKLPECEADDGCPKPPEIAHGYVEHSVRYQCKNYYKLRTEGDGVYTLNNEKQWINKAVGDKLPECEAVCGKPKNPANPVQR
chain 2: ILGGHLDAKGSFPWQAKMVSHHNLTTGATLINEQWLLTTAKNLFLNHSENATAKDIAPTLTLYVGKKQLVEIEKVVLHPNYSQVDIGLIKLKQKVSVNERVMPICLPSKDYAEVGRVGYVSGWGRNANFKFTDHLKYVMLPVADQDQCIRHYEGSTVPEKKTPKSPVGVQPILNEHTFCAGMSKYQEDTCYGDAGSAFAVHDLEEDTWYATGILSFDKSCAVAEYGVYVKVTSIQDWVQKTIAENHHHHHH
**Q.** Which results are given for B1?
**A.** small intestinal permeability (lacman ratio) vs BSA-treated controls (129/SvEv WT mice): failed to alter; also recorded: no changes; gastroduodenal permeability (sucrose fractional excretion) vs BSA-treated controls (129/SvEv WT mice): failed to alter; also recorded: no changes; TEER change / intestinal permeability, dose-response experiment ([1]; FIG. 3): no consistent TEER changes; EGFR phosphorylation compared with single chain zonulin (EGFR): dramatically reduced; EGFR phosphorylation compared with single chain zonulin (EGFR; listed as two-chain mature HP2): significantly reduced
